This assay has as its target human GPR40 (Homo sapiens (Human), UniProt O14842). The assay is described as follows: GPR40 Calcium Flux Assay. The following applies: transfected HEK293 cells stably expressing human GPR40; Ca2+ mobilization; mean data; read-out: hGPR40 Ca^2+ Assay EC50. It is filed as cell-based. As to the method:
Compounds were tested in a calcium flux assay using transfected HEK293 cells stably expressing either human GPR40 or rat GPR40. Human GPR40 expressing cells were cultured in DMEM-High Glucose media supplemented with 10% fetal bovine serum, 1×L-Glutamine, 1×Penicillin/Streptomycin and 500 μg/mL G418. Rat GPR40 expressing cells were cultured in DMEM-High Glucose media supplemented with 10% fetal bovine serum and 1 μg/mL puromycin. Cells were plated into poly-D-lysine coated 384-well plates and cultured overnight in a 37° C. humidified tissue culture incubator under 5% CO2/[…] atmosphere. On the day of the experiment, the culture media was replaced with assay buffer (HBSS, 20 mM HEPES, 0.1% BSA) and the cells incubated at 37° C. for 1 h. Calcium-sensitive fluorescent dye (Fluo 8 No-Wash Calcium Dye, ABD Bioquest) was then added and the cells incubated for another 30 min at 37° C. followed by 15 min at room temperature while protected from the light. The cell plate and a plate of diluted compounds of Formula (I) were loaded into a fluorescent plate reader that added compounds onto the cells while measuring the fluorescence intensity of each well. The plate reader recorded fluorescence intensity at 1 second intervals for 8 min and provided the data for analysis in an Excel format. EC50 values were calculated using Prism (GraphPad) software.
A general note: Calcium assays in cells follow changes in intracellular calcium, usually with a dye or a luminescent sensor.

The source of these data is US10131648B2, “Substituted benzothiophenyl derivatives as GPR40 agonists for the treatment of type II diabetes” (Janssen Pharmaceutica NV, priority 2014, dated 2018).

In general, EC50 refers to the concentration at which the effect is half-maximal.

Values joined by “and” are separate entries in the source; they are usually repeats but may differ in a detail not shown here. Identical values can stand only once.

Sequence of human GPR40 (O14842 whole entry): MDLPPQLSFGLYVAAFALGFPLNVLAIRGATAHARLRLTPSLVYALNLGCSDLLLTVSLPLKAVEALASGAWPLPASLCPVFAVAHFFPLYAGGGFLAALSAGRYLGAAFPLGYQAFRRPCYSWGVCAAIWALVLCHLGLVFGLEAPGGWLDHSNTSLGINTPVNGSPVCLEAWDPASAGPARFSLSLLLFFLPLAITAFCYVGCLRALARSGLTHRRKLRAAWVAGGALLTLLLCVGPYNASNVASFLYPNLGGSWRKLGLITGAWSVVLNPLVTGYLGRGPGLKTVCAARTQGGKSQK

Regarding `CC#C[C@@H](CC(=O)O)c1ccc(COc2ccc3scc(-c4ccc(OC5CCOC5)cc4C)c3c2)cc1` (stereo partly drawn) [Cpd 86, (3S)-3-[4-[([3-[2-Methyl-4-(tetrahydrofuran-3-yloxy)phenyl]-1-benzothiophen-5-yl]oxy)methyl]phenyl]hex-4-ynoic acid], the EC50 came out at 8 nM. To `CC#C[C@@H](CC(=O)O)c1ccc(COc2ccc3scc(-c4c(C)cccc4C)c3c2)cc1` [Cpd 27, (3S)-3-(4-(((3-(2,6-Dimethylphenyl)benzo[b]thiophen-5-yl)oxy)methyl)phenyl)hex-4-ynoic acid] belongs 20 nM.

On to `CC#C[C@@H](CC(=O)O)c1ccc(OCc2ccc3scc(-c4ccc(OC)nc4C)c3c2)cc1` [Cpd 80, (3S)-3-(4-((3-(6-Methoxy-2-methylpyridin-3-yl)benzo[b]thiophen-5-yl)methoxy)phenyl)hex-4-ynoic acid], for which the concentration for a half-maximal effect (EC50) was determined as 20 nM. The figure for `CC#C[C@@H](CC(=O)O)c1ccc(OCc2ccc3scc(-c4cccc(OCCOC)c4C)c3c2)nc1` [Cpd 88, (3R)-3-(6-((3-(3-(2-Methoxyethoxy)-2-methylphenyl)benzo[b]thiophen-5-yl)methoxy)pyridin-3-yl)hex-4-ynoic acid] is 8 nM; for `CC#C[C@@H](CC(=O)O)c1ccc(OCc2ccc3scc(-c4nc(Cl)ccc4C)c3c2)cc1` [Cpd 93, (3S)-3-(4-((3-(6-Chloro-3-methylpyridin-2-yl)benzo[b]thiophen-5-yl)methoxy)phenyl)hex-4-ynoic acid] it is 15 nM; for `Cc1cc(OC2CCS(=O)(=O)CC2)ccc1-c1csc2ccc(COc3ccc([C@]4(CC(=O)O)C[C@@H](O)C4)cc3)cc12` [Cpd 36, 2-((1r,3r)-1-(4-((3-(4-((1,1-Dioxidotetrahydro-2H-thiopyran-4-yl)oxy)-2-methylphenyl)benzo[b]thiophen-5-yl)methoxy)phenyl)-3-hydroxycyclobutyl)acetic acid] it is 43 nM. The figure for `CC#C[C@@H](CC(=O)O)c1ccc(OCc2ccc3scc(-c4ccc(OCC5(O)CCS(=O)(=O)CC5)cc4C)c3c2)cc1` [Cpd 3, (3S)-3-[4-[[3-[4-[(4-Hydroxy-1,1-dioxo-thian-4-yl)methoxy]-2-methyl-phenyl]benzo[b]thiophen-5-yl]methoxy]phenyl]hex-4-ynoic acid] is 5 nM; for `CC#C[C@@H](CC(=O)O)c1ccc(OCc2ccc3scc(-c4ccc(CC5CCNCC5)cc4C)c3c2)cc1` [Cpd 95, (3S)-3-(4-((3-(2-Methyl-4-(piperidin-4-ylmethyl)phenyl)benzo[b]-thiophen-5-yl)methoxy)phenyl)hex-4-ynoic acid] it is 4 nM.

Consider `CC#C[C@H](CC(=O)O)c1ccc(OCc2ccc3scc(-c4ccc(OCC5CCOCC5)cc4C)c3c2)nc1` [Cpd 72, (3S)-3-(6-((3-(2-Methyl-4-((tetrahydro-2H-pyran-4-yl)methoxy)phenyl)benzo[b]thiophen-5-yl)methoxy)pyridin-3-yl)hex-4-ynoic acid], for which the concentration for a half-maximal effect (EC50) is 1330 nM.

`CCOCCOc1ccc(-c2csc3ccc(COc4ccc(C5(CC(=O)O)CC(=O)C5)cc4)cc23)c(C)c1` [Cpd 32, 2-(1-(4-((3-(4-(2-Ethoxyethoxy)-2-methylphenyl)benzo[b]thiophen-5-yl)methoxy)phenyl)-3-oxocyclobutyl)acetic acid]: the concentration for a half-maximal effect (EC50) worked out at 36 nM. For the molecule `Cc1cc(C2=CCS(=O)(=O)CC2)ccc1-c1csc2ccc(COc3ccc(C4(CC(=O)O)CC(=O)C4)cc3)cc12` [Cpd 28, 2-(1-(4-((3-(4-(1,1-Dioxido-3,6-dihydro-2H-thiopyran-4-yl)-2-methylphenyl)benzo[b]thiophen-5-yl)methoxy)phenyl)-3-oxocyclobutyl)acetic acid], the concentration giving a half-maximal response (EC50) is 12 nM.

`CC#C[C@@H](CC(=O)O)c1ccc(OCc2ccc3scc(-c4c(C)cccc4C)c3c2)cc1` [Cpd 10, (3S)-3-[4-[[3-(2,6-Dimethylphenyl)benzo[b]thiophen-5-yl]methoxy]phenyl]hex-4-ynoic acid]: the EC50 came out at 41 nM. For the molecule `CC#C[C@@H](CC(=O)O)c1ccc(COc2ccc3scc(-c4ccc(OCCC(C)(C)O)cc4C)c3c2)cc1` [Cpd 54, (3S)-3-[4-[([3-[4-(3-Hydroxy-3-methylbutoxy)-2-methylphenyl]-1-benzothiophen-5-yl]oxy)methyl]phenyl]hex-4-ynoic acid], the EC50 is 44 nM. For the molecule `CC#C[C@@H](CC(=O)O)c1ccc(OCc2ccc3scc(-c4ccc(OCCCS(C)(=O)=O)cc4C)c3c2)cc1` [Cpd 4, (3S)-3-[4-[[3-[2-Methyl-4-(3-methylsulfonylpropoxy)phenyl]benzo[b]thiophen-5-yl]methoxy]phenyl]hex-4-ynoic acid], the half-maximal effective concentration (EC50) is 3 nM. To `CC#C[C@@H](CC(=O)O)c1ccc(OCc2ccc3sc(C)c(-c4ccc(OC5CCS(=O)(=O)CC5)cc4C)c3c2)cc1` [Cpd 9, (3S)-3-[4-[[3-[4-(1,1-Dioxothian-4-yl)oxy-2-methyl-phenyl]-2-methyl-benzo[b]thiophen-5-yl]methoxy]phenyl]hex-4-ynoic acid] belongs 17 nM; to `CC#C[C@@H](CC(=O)O)c1ccc(OCc2ccc3scc(-c4ccccc4OCCOC)c3c2)cc1` [Cpd 68, (3S)-3-[4-([3-[2-(2-Methoxyethoxy)phenyl]-1-benzothiophen-5-yl]methoxy)phenyl]hex-4-ynoic acid], 19 nM; to `CC#C[C@@H](CC(=O)O)c1ccc(OCc2ccc3scc(-c4cnc(OCCOC)cc4C)c3c2)cc1` [Cpd 51, (3S)-3-(4-((3-(6-(2-Methoxyethoxy)-4-methylpyridin-3-yl)benzo[b]thiophen-5-yl)methoxy)phenyl)hex-4-ynoic acid], 6 nM. To `CC#C[C@@H](CC(=O)O)c1ccc(COc2ccc3scc(-c4ccc(OCC5CCS(=O)(=O)CC5)cc4C)c3c2)cc1` [Cpd 59, (3S)-3-{4-[((3-{4-[(1,1-Dioxo-tetrahydro-2H-thiopyran-4-yl)methoxy]-2-methylphenyl}-1-benzothiophen-5-yl)oxy)methyl]phenyl}hex-4-ynoic acid] belongs 14 nM; to `CC#CC(CC(=O)O)c1ccc(OCc2ccc3scc(-c4ccc(OCC(O)CO)cc4C)c3c2)nc1` (centres unmarked) [Cpd 62, 3-(6-((3-(4-(2,3-Dihydroxypropoxy)-2-methylphenyl)benzo[b]thiophen-5-yl)methoxy)pyridin-3-yl)hex-4-ynoic acid], 10 nM; to `CC#C[C@@H](CC(=O)O)c1ccc(OCc2ccc3scc(-c4cc(OCCOC)cnc4C)c3c2)nc1` [Cpd 92, (3R)-3-(6-((3-(5-(2-Methoxyethoxy)-2-methylpyridin-3-yl)benzo[b]thiophen-5-yl)methoxy)pyridine-3-yl)hex-4-ynoic acid], 13 nM.

Take `CC#C[C@@H](CC(=O)O)c1ccc(COc2ccc3scc(-c4ccc(C5=CCS(=O)(=O)CC5)cc4C)c3c2)cc1` [Cpd 25, (3S)-3-(4-(((3-(4-(1,1-Dioxido-3,6-dihydro-2H-thiopyran-4-yl)-2-methylphenyl)benzo[b]thiophen-5-yl)oxy)methyl)phenyl)hex-4-ynoic acid]: the concentration for a half-maximal effect (EC50) is 24 nM. The figure for `Cc1ncccc1-c1csc2ccc(COc3ccc([C@]4(CC(=O)O)C[C@@H](O)C4)cc3)cc12` [Cpd 39] is 46 nM. The figure for `CC#C[C@@H](CC(=O)O)c1ccc(OCc2ccc3scc(-c4cc(OCCOC)ccc4C)c3c2)cc1` [Cpd 65, (3S)-3-[4-([3-[5-(2-Methoxyethoxy)-2-methylphenyl]-1-benzothiophen-5-yl]methoxy)phenyl]hex-4-ynoic acid] is 11 nM. The figure for `Cc1ncccc1-c1csc2ccc(COc3ccc(C4(CC(=O)O)CC(=O)C4)cc3)cc12` [Cpd 38, 2-(1-(4-((3-(2-Methylpyridin-3-yl)benzo[b]thiophen-5-yl)methoxy)phenyl)-3-oxocyclobutyl)acetic acid] is 19 nM. With `CC#CC(CC(=O)O)c1ccc(OCc2ccc3scc(-c4ccc(OC5CCOCC5)cc4C)c3c2)nc1` (centres unmarked) [Cpd 46, 3-(6-((3-(2-Methyl-4-((tetrahydro-2H-pyran-4-yl)oxy)phenyl)benzo[b]thiophen-5-yl)methoxy)pyridin-3-yl)hex-4-ynoic acid], the concentration for a half-maximal effect (EC50) came out at 18 nM. Turning to `CC#C[C@@H](CC(=O)O)c1ccc(OCc2ccc3scc(-c4ccc(OCCOC)cc4C)c3c2)nc1` [Cpd 77, (3R)-3-(6-((3-(4-(2-Methoxyethoxy)-2-methylphenyl)benzo[b]thiophen-5-yl)methoxy)pyridin-3-yl)hex-4-ynoic acid], the EC50 was 16 nM and 6 nM and 5 nM.

On to `CC#C[C@@H](CC(=O)O)c1ccc(OCc2ccc3scc(-c4cnccc4OC)c3c2)cc1` [Cpd 81, (3S)-3-(4-((3-(4-Methoxypyridin-3-yl)benzo[b]thiophen-5-yl)methoxy)phenyl)hex-4-ynoic acid], for which the EC50 was determined as 11 nM.

As to `CC#C[C@@H](CC(=O)O)c1ccc(OCc2ccc3scc(-c4ccc(OCC(O)CO)cc4C)c3c2)cc1` (stereo partly drawn) [Cpd 13, (3S)-3-(4-((3-(4-(2,3-Dihydroxypropoxy)-2-methylphenyl)benzo[b]thiophen-5-yl)methoxy)phenyl)hex-4-ynoic acid], the 50% effective concentration (EC50) was 7 nM. The figure for `CC#C[C@@H](CC(=O)O)c1ccc(OCc2ccc3scc(-c4ccc(OC5CCOCC5)cc4C)c3c2)cc1` [Cpd 15, (3S)-3-(4-((3-(2-Methyl-4-((tetrahydro-2H-pyran-4-yl)oxy)phenyl)benzo[b]thiophen-5-yl)methoxy)phenyl)hex-4-ynoic acid] is 2 nM.
